# Assay results as given in patent publication US7982018B2, “Modified corticotropin releasing factor peptides and uses thereof” (Conjuchem, LLC, priority 2006, dated 2011).
# Where no end group is shown, it is not given here.
# Test system: Male C57BL/6 mice
# Experiment: Food intake in mice after a single intravenous injection of urocortin derivatives
# Format: in vivo
# Description: The potency of several modified urocortin derivatives were determined by measuring food intake in mice. A study was performed with native human urocortin 1, 2 and 3 to select a dose and to determine whether the IV route was adequate for native peptides. Following the initial study, two additional studies were performed in which the effect of modified derivatives and native peptides were compared.
# Male C57BL/6 mice (22-26g) were housed 3 per cage and fed with standard chow. The night before dosing, mice were food restricted i.e., they were given only half of the amount of food ingested during the previous night. Dosing was performed between 9 and 10 a.m. Mice received a single intravenous injection (5 ml/kg via the tail vein) of saline or urocortin derivatives diluted in saline. Food intake was measured by placing preweighed pellets in the cage and weighing the uneaten pellets at 1, 2, 4, 6, 24 and 48 hours postdose.
# [1] = Study No. 2, FIG. 3, (Ucn II and III derivatives)
# [2] = Study No. 2, FIG. 3, 20 nmol/kg (Ucn I derivatives)
substance,measurement,setting,value
"IVLSLDVPIGLLQILLEQARAK-(ε-AEEA-MPA) AAR EQATT NARIL ARV-NH2 (IVLSLDVPIGLLQILLEQARAKAAREQATTNARILARV; Lys-AEEA-MPA, C-terminal amide) [SEQ ID No. 83, Modified peptide of human urocortin 2]",inhibition of food intake as compared to the control group,"Study No. 1, FIG. 1, 85 nmol/kg, 4-6 hour time interval",50%
same,duration of activity on food intake compared with the other tested compounds,[1],most prolonged activity
"FTLSLDVPTNIMNLLFNIAKAKNLRAQAAANAHLMAQI-NH2 (FTLSLDVPTNIMNLLFNIAKAKNLRAQAAANAHLMAQI-NH2; listed as Homo sapiens) [Urocortin III, Human Urocortin 3 (38 Amino-acids), native peptide]",'rebound' of food intake as compared to the control,[1],increase of food intake as compared to the control
same,activity on food intake versus the free peptide,[1],much less active than the free peptide
same,period of decreased food intake,[1],decreased food intake during the first hour after injection only
IVLSLDVPIGLLQILLEQARARAAREQATTNARILARVGHC-NH2 (IVLSLDVPIGLLQILLEQARARAAREQATTNARILARVGHC-NH2; listed as Homo sapiens) [SEQ ID No. 92],food intake in the 1-2 h time period versus control,"Study No. 1, FIG. 1, 85 nmol/kg, 1-2 h postdose",back to the control
same,time over which food intake was reduced/inhibited postdose,"Study No. 1, FIG. 1, normal mice, 85 nmol/kg",up to 1 hour
same,cumulative food intake versus saline control,"Study No. 1, FIG. 2, 85 nmol/kg, at 6 hours postdose",still lower than the saline control
"DNPSLSIDLTFHLLRTLLELAK-(ε-AEEA-MPA)TQS QRERA EQNRI IFDSV-NH2 (DNPSLSIDLTFHLLRTLLELAKTQSQRERAEQNRIIFDSV; Lys-AEEA-MPA, C-terminal amide) [SEQ ID No. 80, Modified peptide of human urocortin 1]",'rebound' of food intake as compared to the control,[2],increase of food intake as compared to the control
"FTLSL DVPTN IMNLL FNIAK(ε-AEEA-MPA) ARNLR AQAAA NAHLM AQI-NH2 (FTLSLDVPTNIMNLLFNIAKARNLRAQAAANAHLMAQI; Lys-AEEA-MPA, C-terminal amide) [SEQ ID No. 85, Modified peptide of human urocortin 3]",'rebound' of food intake as compared to the control,[1],increase of food intake as compared to the control
"DNPSLSIDLTFHLLRTLLELARTQSQRERAEQNRIIFDSV-NH2 (DNPSLSIDLTFHLLRTLLELARTQSQRERAEQNRIIFDSV-NH2; listed as Homo sapiens) [human urocortin 1, Human Urocortin 1 (40 Amino-acids), native peptide]",time up to which food intake was reduced,[2],up to 4 hours
